The values that follow come from ChEMBL document CHEMBL1201862, “PubChem BioAssay data set” (2004).

Molecules are shown by their SMILES. Several values for one entry are separate records, joined by “and”; a condition that tells them apart may be missing. Equal values may be shown once.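 Step 1: Grow cells in 96-well plates. Step 2: Expose to compound for 48 hours at 5 concentrations. Step 3: Interpolate endpoints linearly; if unreached, use highest concentration. Abbreviation: GI50, concentration required for 50% inhibition of growth.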 Activity calls are given as the source filed them. Rule as the data show it: active = GI50 up to about 1.1 µM and inactive = higher. A value given as a limit tells only on which side of the number the result lay.

Among the test systems are SK-MEL-28; SK-OV-3; HCC 2998; HOP-62; UO-31; UACC-257; HT-29; HCT-116; OVCAR-8; COLO 205; NCI-H522; OVCAR-4; IGROV-1; NCI-H23; PC-3; ACHN; Malme-3M; HL-60; HCT-15; A498.
Holding throughout (assay): NCI-60 cell line screen, 48 h

With `OC1COC(OCc2ccccc2)C(O)C1O` (stereo unspecified), the GI50 with SK-MEL-28, with SK-OV-3, in the assay with HCC 2998, in the assay with HOP-62, in the assay on UO-31 and with UACC-257 was > 100 µM (inactive) each time. The GI50 with HT-29, with HCT-116, with OVCAR-8, in the assay on COLO 205, with NCI-H522 and in the assay with OVCAR-4 was > 100 µM (inactive) each time. For the same compound, the GI50 with IGROV-1, with NCI-H23, in the assay on PC-3, in the assay on ACHN, with Malme-3M and in the assay on HL-60 was > 100 µM (inactive) each time. Moreover, the GI50 was above 100 µM in the assay on HCT-15 and > 100 µM (inactive) in the assay on A498.
Regarding `CC1C2CC(CC(=O)N2)C1(C)C` (stereo unspecified), the GI50 in the assay on SK-MEL-28, with SK-OV-3, with HCC 2998, with HOP-62, in the assay with UO-31 and in the assay with UACC-257 was > 100 µM (inactive) throughout. Moreover, the GI50 in the assay with HT-29, with HCT-116, with OVCAR-8, with COLO 205, in the assay with NCI-H522 and with OVCAR-4 was > 100 µM (inactive) throughout. In addition, the GI50 in the assay on IGROV-1, in the assay with NCI-H23, in the assay with PC-3, in the assay on ACHN, in the assay on Malme-3M and in the assay on HL-60 was > 100 µM (inactive) each time. Also, in the assay with A498, the GI50 is > 100 µM (inactive).
Take `COc1ccccc1OCC(=N/NC(=O)c1ccncc1)/N=C/c1cccnc1`: the GI50 in the assay on SK-MEL-28, with SK-OV-3, with HCC 2998, with HOP-62, in the assay on UACC-257 and with HT-29 was > 100 µM (inactive) in each case. Besides, the GI50 in the assay on HCT-116, in the assay with OVCAR-8, in the assay with COLO 205, with NCI-H522, with OVCAR-4 and in the assay on IGROV-1 was > 100 µM (inactive) each time. Moreover, the GI50 in the assay with NCI-H23 was > 100 µM (inactive); in the assay on PC-3, > 100 µM (inactive); with ACHN, > 100 µM (inactive); in the assay with Malme-3M it was > 100 µM (inactive); in the assay with HL-60, > 100 µM (inactive); with HCT-15, above 100 µM. In the assay on A498, the GI50 was > 100 µM (inactive).
Regarding `Cc1ccc(/C=C2/N/C(=N\N=C/C(O)C(O)C(O)C(O)CO)NC2=O)cc1` (stereo unspecified), the GI50 in the assay with SK-MEL-28, with SK-OV-3, with HCC 2998, in the assay on HOP-62, in the assay on UO-31 and with UACC-257 was > 100 µM (inactive) throughout. The GI50 in the assay with HT-29, with HCT-116, with OVCAR-8, with COLO 205, with NCI-H522 and in the assay on IGROV-1 was > 100 µM (inactive) throughout. Further, the GI50 is > 100 µM (inactive) in the assay on NCI-H23; > 100 µM (inactive) with PC-3; > 100 µM (inactive) in the assay on ACHN; > 100 µM (inactive) in the assay on Malme-3M; > 100 µM (inactive) in the assay on HL-60; > 100 µM and 69.8 µM with HCT-15. The GI50 with A498 was > 100 µM (inactive).
Consider `FC(F)(Sc1ncc[nH]1)c1nc2ccccc2o1`, for which the GI50 in the assay with SK-MEL-28, in the assay on SK-OV-3, in the assay with HCC 2998, in the assay on HOP-62, in the assay with UO-31 and in the assay on UACC-257 was > 100 µM (inactive) throughout. The GI50 with HT-29, in the assay on HCT-116, in the assay on OVCAR-8, with COLO 205, in the assay on NCI-H522 and with OVCAR-4 was > 100 µM (inactive) in each case. Also, the GI50 in the assay with IGROV-1 was > 100 µM (inactive); with NCI-H23, > 100 µM (inactive); with PC-3 it was > 100 µM (inactive); in the assay with ACHN, > 100 µM (inactive); in the assay on Malme-3M it was > 100 µM (inactive); with HCT-15, above 100 µM. Further, the GI50 with A498 was > 100 µM (inactive).
Consider `Clc1nc(Cl)c(CBr)c(Cl)n1`, for which the GI50 is 5.74 µM (inactive) in the assay with SK-MEL-28; 15.2 µM (inactive) in the assay on SK-OV-3; 10.8 µM (inactive) in the assay on HCC 2998; 5.04 µM (inactive) in the assay with HOP-62; 3.33 µM (inactive) in the assay on UO-31; 15 µM (inactive) in the assay on UACC-257. Moreover, the GI50 with HT-29 was 4.29 µM (inactive); with HCT-116, 2.48 µM (inactive); with OVCAR-8 it was 3.27 µM (inactive); with COLO 205 it was 7.01 µM (inactive); with NCI-H522, 1.5 µM (inactive); with OVCAR-4, 6.34 µM (inactive). In addition, the GI50 in the assay with IGROV-1 was 4.41 µM (inactive); with NCI-H23, 14.6 µM (inactive); with PC-3, 6.19 µM (inactive); in the assay on ACHN, 4.84 µM (inactive); in the assay on Malme-3M, 4.16 µM (inactive); in the assay on HCT-15, 2.65 µM. For the same compound, the GI50 in the assay on A498 is 18.1 µM (inactive).
`Cc1cc(S(=O)(=O)N/C(=C(\C#N)C(=O)c2ccccc2)[n+]2ccc(N(C)C)cc2)c([S-])cc1Cl`: the GI50 in the assay with SK-MEL-28, in the assay with SK-OV-3, in the assay with HOP-62, in the assay on UO-31, in the assay with UACC-257 and with HT-29 was > 100 µM (inactive) in each case. The GI50 in the assay on HCT-116 was 37.2 µM (inactive); with OVCAR-8, > 100 µM (inactive); in the assay with COLO 205 it was > 100 µM (inactive); in the assay on NCI-H522, 35.6 µM (inactive); with OVCAR-4, 69.8 µM (inactive); with IGROV-1 it was 88.3 µM (inactive). For the same compound, the GI50 in the assay on NCI-H23 was > 100 µM (inactive); with PC-3, > 100 µM (inactive); in the assay on ACHN, > 100 µM (inactive); with Malme-3M it was 20.9 µM (inactive); in the assay with HL-60, > 100 µM (inactive); in the assay with HCT-15, above 100 µM. The GI50 with A498 is 32.4 µM (inactive).
As to `NCCC(=O)N[C@H](Cc1cc(O)c(O)c(SCC(NC(=O)CC[C@H](N)C(=O)O)C(=O)NCC(=O)O)c1)C(=O)O` (stereo partly specified), the GI50 in the assay with SK-MEL-28, in the assay on SK-OV-3, with HCC 2998, with HOP-62, with UO-31 and in the assay on UACC-257 was > 50 µM (inactive) in each case. Moreover, the GI50 in the assay with HT-29, in the assay on HCT-116, with COLO 205, in the assay with NCI-H522, with OVCAR-4 and in the assay with IGROV-1 was > 50 µM (inactive) throughout. In addition, the GI50 with NCI-H23 is > 50 µM (inactive); in the assay on PC-3, > 50 µM (inactive); in the assay on ACHN, > 50 µM (inactive); in the assay on Malme-3M, > 50 µM (inactive); in the assay on HCT-15, above 50 µM; in the assay on A498, > 50 µM (inactive).
With `Cc1cc2c(c(S(=O)(=O)c3ccccc3[N+](=O)[O-])c1)NCCC2`, the GI50 with SK-MEL-28 was 54 µM (inactive); with SK-OV-3, > 100 µM (inactive); with HCC 2998, 91.2 µM (inactive); in the assay on HOP-62 it was > 100 µM (inactive); in the assay with UO-31, 37.4 µM (inactive); in the assay on HT-29, > 100 µM (inactive). The GI50 in the assay with OVCAR-8 was > 100 µM (inactive); in the assay on COLO 205, > 100 µM (inactive); in the assay with NCI-H522 it was 16.1 µM (inactive); in the assay with OVCAR-4 it was 23.5 µM (inactive); with IGROV-1, 95.7 µM (inactive); with NCI-H23, 59.7 µM (inactive). Also, the GI50 with PC-3 was 27.9 µM (inactive); in the assay on ACHN it was 28.9 µM (inactive); in the assay on Malme-3M, 44.8 µM (inactive); with HL-60 it was 26.2 µM (inactive); in the assay on HCT-15, 33.7 µM; with A498, > 100 µM (inactive).
As for `COc1cccc2c1NC(=O)Cc1c-2[nH]c2ccccc12`, the GI50 is 30.8 µM (inactive) in the assay on SK-MEL-28; > 100 µM (inactive) in the assay with SK-OV-3; > 100 µM (inactive) in the assay with HCC 2998; > 100 µM (inactive) in the assay with HOP-62; > 100 µM (inactive) in the assay with UO-31; 47.6 µM (inactive) in the assay on HT-29. Besides, the GI50 in the assay with COLO 205 was > 100 µM (inactive); with NCI-H522, 49.9 µM (inactive); in the assay with OVCAR-4 it was 98.2 µM (inactive); in the assay on IGROV-1 it was > 100 µM (inactive); in the assay on NCI-H23, 81.5 µM (inactive); with PC-3, > 100 µM (inactive). Besides, the GI50 in the assay with ACHN was > 100 µM (inactive); with Malme-3M, > 100 µM (inactive); with HL-60, > 100 µM (inactive); in the assay on HCT-15 it was 73.8 µM; with A498, > 100 µM (inactive).
Take `O=C1c2cc3c(cc2CC12Cc1cc4c(cc1C2=O)CCC4)CCC3`: the GI50 with SK-MEL-28, in the assay on SK-OV-3, in the assay with HCC 2998, in the assay on HOP-62, in the assay on UO-31 and in the assay on UACC-257 was > 100 µM (inactive) each time. Also, the GI50 in the assay with HT-29, with HCT-116, in the assay with OVCAR-8, with COLO 205, in the assay with NCI-H522 and with IGROV-1 was > 100 µM (inactive) throughout. Besides, the GI50 in the assay with NCI-H23 is > 100 µM (inactive); in the assay on PC-3, > 100 µM (inactive); in the assay with ACHN, > 100 µM (inactive); in the assay on Malme-3M, > 100 µM (inactive); in the assay with HL-60 it was > 100 µM (inactive); in the assay with HCT-15 it was above 100 µM. For the same compound, the GI50 in the assay with A498 is > 100 µM (inactive).
